Experimental data as given in patent US11135163B2, “Peptide hydrogel properties and its applications” (Kansas State University Research Foundation, priority 2014, dated 2021).

Key:
[1] = Instantaneous gelation time sweep of peptide sequences 1, 3 and 4; format: physicochemical; conditions: triggered with 100 mM CaCl2 solution (FIG. 12, 13)
Protocol: Similar to the methods used in U.S. 2013/0018004. Hydrogels were prepared with peptide 1, 3, and 4 alone, or mixture of peptide sequence 1 and 4 at 1:1 ratio. Hydrogels were triggered by calcium ions and BSA alone or co-trigger (calcium ions+BSA).

[2] = Rheology of h9e/HSA hydrogel formation; format: physicochemical
Protocol: (§1) For albumin triggered hydrogel formation, 10 mM (1.74 wt %) peptide was first dissolved in 100 mM NaHCO3 solution. BSA and HSA were dissolved in water with 5 wt % concentration. The peptide solution and albumin solution were then mixed at different ratios for final mixtures of 1, 2, 3 mM h9e peptide with albumin from 0.1 to 5 wt %.
The storage (G′) and loss (G″) moduli of h9e hydrogels with different peptide/albumin ratios were measured on a rheometer system C-VOR 150 (Malvern instruments, Malvern, Worcestershire WR141XZ, United Kingdom) with a 20 mm diameter parallel plate test system. All rheological tests were carried out at 37° C. To determine the hydrogel forming rate, the peptide and albumin mixture was placed on the measuring system immediately after preparation and tested by a single frequency (1 Hz) method with steady shear strain (1%) for 1 hour

Male Wistar rats = test: In vivo hemostatic efficiency, cut rat tail model; conditions: all percent concentrations of h9e peptide solution
Source text: Similar to the method used by Mortazavi et al., in this study 30 rats were divided randomly into 5 groups of 6 animals each. […] Male Wistar rats were kept on AIN-93 diet with free access to water, under 12-h light-dark cycles, for one week. Before excising the tail, the rats were first anesthetized and maintained with 3% isoflurane until the eyelid closure reflex was lost and there was no reactive reflex in response to a toe pinch. In order to maintain an appropriate body temperature during anesthesia, a circulating water blanket was used at a temperature of 41-43° C. Following anesthesia, animals' tails were cut off at a thickness of 5 mm using a pair of mortuary scissors. The cut tail was immediately inserted into a small vial containing the appropriate treatment. The 1st group received topical saline solution (negative control) and the 2nd to 4th groups received topical h9e peptide solution at 1, 3, or 5 wt %, respectively. The 5th group received a topical application of a commercially available hemostatic agent as a positive control (Moore Medical CELOX* Hemostatic Granules). After treatment with above mentioned agents, the volume of blood lost was measured using a scaled test-tube. The bleeding time was measured using a stop watch. At the conclusion of the study, the rats were sacrificed using a CO2 chamber.

[3] = h9e-MSC medium hydrogel rheology; format: physicochemical
Protocol: Two different types of stem cell mediums were selected for this test. One is a low glucose DMEM medium with 2% (v/v) Fetal Bovine Serum (FBS) for Mesenchymal Stromal Cell (MSC medium). The other one is a N2B27 supplemented serum-free 2i medium with 0.5% (v/v) Bovine Serum Albumin (BSA) for rat Embryonic Stem Cell (ESC, 2i medium). The hydrogel formation process was monitored under a time sweep rheological test for 1 hour. The special shear-thinning and self-healing property of h9e peptide hydrogel was also tested. […] In addition, the stability of hydrogel as well as the peptide solution before the hydrogel formation was also tested.
The h9e peptide was synthesized according to the method mentioned above. Lyophilized peptide was added to 100 mM sodium bicarbonate and completely dissolved by magnetic stirring for 3 hours with a final peptide concentration of 10 mM. For hydrogelation, peptide solution was added into MSC medium or 2i medium and the mixture was hand-shaken for about 10 seconds or gently pipette mixed 3 times. The final peptide concentrations were 1, 2, and 3 mM.
The storage and loss moduli (G′ and G″, respectively) of h9e hydrogels were determined on a C-VOR 150 rheometer system (Malvern instruments, Malvern, Worcestershire WR141XZ, United Kingdom) with a 20-mm diameter parallel plate geometry and 500 μm gap size at 37° C. The methods for hydrogel formation test and shear-thinning and self-healing test were the same as the methods of cancer cell medium mentioned above. After 24 hours of hydrogel formation, 2 mM peptide hydrogel was diluted 20 fold by adding cell culture medium and thorough mixing by pipette. The diluted solution was transferred to rheometer system and tested under 1 Hz frequency and 1% shear strain at 4° C. for 1 hour.

[4] = Rheology of h9e/BSA hydrogel formation (storage modulus G′); format: physicochemical; conditions: for G′ after 2 hours of testing: 3 mM h9e
Protocol: as §1
The storage (G′) and loss (G″) moduli of h9e hydrogels with different peptide/albumin ratios were measured on a rheometer system C-VOR 150 (Malvern instruments, Malvern, Worcestershire WR141XZ, United Kingdom) with a 20 mm diameter parallel plate test system. All rheological tests were carried out at 37° C. […]

final gel strength after 30 minute gelation time sweep [1]: 240 Pa
hydrogel formation ([2]; 3 mM h9e peptide mixed with 5 wt % HSA): hydrogel was formed
hydrogel formation ([2]; peptide concentration 1 mM or HSA concentration 0.5 wt %): Hydrogel did not form
stable G′ ([3]; 1 mM h9e-MSC hydrogel): 70 Pa
G′ under 500% shear strain ([3]; 2 mM h9e-MSC hydrogel): lower than 0.2 Pa
stable G′ ([3]; 2 mM h9e-MSC hydrogel): 350 Pa
gel strength recovered ([3]; 2 mM h9e-MSC hydrogel, 1 min after shear ceased): greater than 90%
mechanical strength recovered ([3]; 2 mM h9e-MSC hydrogel, within a few minutes of 1% shear strain recovery test): 100%
stable G′ ([3]; 3 mM h9e-MSC hydrogel): 800 Pa
G′ and G″ after 20-fold dilution ([3]; diluted from 2 mM to 0.1 mM, 1 hour test): lower than 4 Pa
hydrogel formation ([4]; 1 mM peptide with 1 wt % BSA, 2 hour test): performed like a Newtonian liquid
stable G′ ([4]; 3 mM h9e peptide solution mixed with 5% BSA, 37° C.): around 200 Pa
behaviour of peptide solution alone ([4]; 3 mM h9e solution without BSA, 30 min test): performed as Newtonian liquid
G′ after 2 hours of testing ([4]; 0.1 wt % BSA): about 110 Pa
G′ after 2 hours of testing ([4]; 0.5 wt % BSA): over 900 Pa
G′ after 2 hours of testing ([4]; 1 wt % BSA): 680 Pa
G′ after 2 hours of testing ([4]; 5 wt % BSA): 200 Pa
gel strength ([4]; 0.5% h9e peptide and 0.5% BSA, incubated at 37° C. for 30 min): about 450 Pa
Substance: H-FLIVIGSIIGPGGDGPGGD-NH2 [h9e, FLIVIGSIIGPGGDGPGGD]
control of hemorrhage versus sterile saline negative control (Male Wistar rats): effective in controlling hemorrhage
